Laboratory results: patent US10590085B2, “Heterocyclic amides as kinase inhibitors” (GlaxoSmithKline Intellectual Property Development Limited, priority 2015, dated 2020)

Each compound was assayed on human monocytic leukemia U937 cells (assay: necroptosis assay in U937 cells). Conditions: Homo sapiens, U-937, U937 cells; viability by cellular ATP (Cell Titer-Glo); read-out: mean pIC50, inhibition of necrosis in U937 cells (converted).
Format: cell-based
Experimental: The efficacy of RIP1 inhibitors can be tested […] in vitro using a human monocytic leukemia U937 or mouse L929 fibrosarcoma cells in a necroptosis assay. As determined using the method described in He, S. et al. 2009. Cell 137(6):1100-1111 and International Patent Appln. No. PCT/IB2014/059004, now, International Patent Appln. Pub.
Viability was measured by quantitating cellular levels of ATP using the Cell Titer-Glo kit. All data are means±standard deviation of the mean.

| Compound | IC50 |
| --- | --- |
| O=C(C1CCN(c2ncc(F)cn2)CC1)N1N=CCC1c1ccc(OC(F)F)cc1 (stereo not drawn) [Example 185, (5-(4-(difluoromethoxy)phenyl)-4,5-dihydro-1H-pyrazol-1-yl)(l-(5-fluoropyrimidin-2-yl)piperidin-4-yl)methanone] | 1 to 100 nM |
| O=C(c1ccno1)N1CCC(C(=O)N2N=CCC2c2ccccc2)CC1 (stereo not drawn) [Example 151, isoxazol-5-yl(4-(5-phenyl-4,5-dihydro-1H-pyrazole-1-carbonyl)piperidin-1-yl)methanone] | 1 to 100 nM |
| O=C(c1ncco1)N1CCC(C(=O)N2N=CCC2c2ccccc2)CC1 (stereo not drawn) [Example 148, oxazol-2-yl(4-(5-phenyl-4,5-dihydro-1H-pyrazole-1-carbonyl)piperidin-1-yl)methanone] | 1 to 100 nM |
| O=C(c1nccs1)N1CCC(C(=O)N2N=CCC2c2ccccc2)CC1 (stereo not drawn) [Example 112, (5-phenyl-4,5-dihydro-1H-pyrazol-1-yl)(1-(thiazole-2-carbonyl)piperidin-4-yl)methanone] | 1 to 100 nM |
| CC(C)(C)C(=O)N1N=CCC1c1cccc(Cl)c1 (stereo not drawn) [Example 43, 1-(5-(3-chlorophenyl)-4,5-dihydro-1H-pyrazol-1-yl)-2,2-dimethyl propan-l-one] | 1 to 100 nM |
| Cc1ccc(C2CC=NN2C(=O)C(C)(C)C)cc1F (stereo not drawn) [Example 54, 1-(5-(3-fluoro-4-methylphenyl)-4,5-dihydro-1H-pyrazol-1-yl)-2,2-dimethyl-propan-1-one] | 1 to 100 nM |
| CC(C)(C)C(=O)N1N=CCC1c1cccc(C#N)c1 (stereo not drawn) [Example 80, 3-(1-pivaloyl-4,5-dihydro-1H-pyrazol-5-yl)benzonitrile] | 1 to 100 nM |
| O=C(C1CCN(c2ccccc2)CC1)N1N=CC[C@H]1c1ccccc1 [Example 19, (S)-(5-phenyl-4,5-dihydro-1H-pyrazol-1-yl)(1-phenyl-piperidin-4-yl)-methanone] | 1 to 100 nM |
| CC(C)(C)C(=O)N1N=CCC1c1cncc(F)c1 (stereo not drawn) [Example 14, 1-(5-(5-fluoro-pyridin-3-yl)-4,5-dihydro-1H-pyrazol-1-yl)-2,2-dimethyl-propan-1-one] | 1 to 100 nM |
| CC(C)(C)C(=O)N1N=CC[C@H]1c1ccc(C#N)cc1 [Example 79, (S)-4-(1-pivaloyl-4,5-dihydro-1H-pyrazol-5-yl)-benzonitrile] | 1 to 100 nM |
| Cc1ccc(C2CC=NN2C(=O)C(C)(C)C)cc1 (stereo not drawn) [Example 58, 2,2-dimethyl-1-(5-(p-tolyl)-4,5-dihydro-1H-pyrazol-1-yl)propan-1-one] | 1 to 100 nM |
| CC(C)(C)C(=O)N1N=CCC1c1ccc(Cl)cc1 (stereo not drawn) [Example 65, 1-(5-(4-chloro-phenyl)-4,5-dihydro-1H-pyrazol-1-yl)-2,2-dimethyl-propan-1-one] | 1 to 100 nM |
| Cn1cccc1C(=O)N1CCC(C(=O)N2N=CCC2c2ccccc2)CC1 (stereo not drawn) [Example 175, (1-methyl-1H-pyrrol-2-yl)(4-(5-phenyl-4,5-dihydro-1H-pyrazole-1-carbonyl)piperidin-1-yl)methanone 2,2,2-trifluoroacetalc] | 1 to 100 nM |
| Cc1ccc(C(=O)N2CCC(C(=O)N3N=CCC3c3ccccc3)CC2)s1 (stereo not drawn) [Example 122, (5-methylthiophen-2-yl)(4-(5-phenyl-4,5-dihydro-1H-pyrazole-1-carbonyl)piperidin-1-yl)methanone] | 1 to 100 nM |
| N#Cc1ccc(C2CC=NN2C(=O)C2CCN(c3ncc(F)cn3)CC2)cc1 (stereo not drawn) [Example 188, 4-(1-(1-(5-fluoropyrimidin-2-yl)piperidine-4-carbonyl)-4,5-dihydro-1H-pyrazol-5-yl)benzonitrile] | 1 to 100 nM |
| O=C(C1CCN(c2ccc(C(F)(F)F)cn2)CC1)N1N=CCC1c1ccccc1 (stereo not drawn) [Example 179, (5-phenyl-4,5-dihydro-1H-pyrazol-1-yl)(1-(5-(trifluoromethyl)pyridin-2-yl)piperidin-4-yl)methanone 2,2,2-trifluoroacetate] | 1 to 100 nM |
| CC(C)(C)C(=O)N1N=CCC1c1cccc(F)c1 (stereo not drawn) [Example 67, 1-(5-(3-fluoro-phenyl)-4,5-dihydro-1H-pyrazol-1-yl)-2,2-dimethylpropan-1-one 2,2,2-trifluoroacetate] | 1 to 100 nM |
| O=C(c1ccns1)N1CCC(C(=O)N2N=CCC2c2ccccc2)CC1 (stereo not drawn) [Example 125, isothiazol-5-yl(4-(5-phenyl-4,5-dihydro-1H-pyrazole-1-carbonyl)piperidin-1-yl)methanone] | 1 to 100 nM |
| O=C(c1cccc(Cl)n1)N1CCC(C(=O)N2N=CCC2c2ccccc2)CC1 (stereo not drawn) [Example 105, (1-(6-chloro-picolinoyl)piperidin-4-yl)(5-phenyl-4,5-dihydro-1H-pyrazol-1-yl)methanone] | 1 to 100 nM |
| Cc1ncc(C(=O)N2CCC(C(=O)N3N=CCC3c3ccccc3)CC2)s1 (stereo not drawn) [Example 124, (2-methylthiazol-5-yl)(4-(5-phenyl-4,5-dihydro-1H-pyrazole-1-carbonyl)piperidin-1-yl)methanone] | 1 to 100 nM |
| O=C(c1ccc(F)cn1)N1CCC(C(=O)N2N=CCC2c2ccccc2)CC1 (stereo not drawn) [Example 108, (1-(5-fluoro-picolinoyl)piperidin-4-yl)(5-phenyl-4,5-dihydro-1H-pyrazol-1-yl)methanone] | 1 to 100 nM |

| Compound | IC50 |
| --- | --- |
| CC1=NN(C(=O)C2CCN(c3ncc(F)cn3)CC2)C(c2ccccc2)C1 (stereo not drawn) [Example 87, (1-(5-fluoro-pyrimidin-2-yl)-piperidin-4-yl)(3-methyl-5-phenyl-4,5-dihydro-1H-pyrazol-1-yl)-methanone] | 1 to 100 nM |
| O=C(c1cccnc1)N1N=CCC1c1ccccc1 (stereo not drawn) [Example 209] | ~2000 nM |
| O=C(C1CCN(c2ccccc2)CC1)N1N=CCC1c1ccccc1 (stereo not drawn) [Example 18, (5-phenyl-4,5-dihydro-1H-pyrazol-1-yl)(1-phenylpiperidin-4-yl)-methanone] | 1 to 100 nM |
| O=C(c1ccccc1)N1CCC(C(=O)N2N=CCC2c2ccccc2)CC1 (stereo not drawn) [Example 164, (1-benzoylpiperidin-4-yl)(5-phenyl-4,5-dihydro-1H-pyrazol-1-yl)methanone] | 1 to 100 nM |
| O=C(C1CCN(c2ncccn2)CC1)N1N=CCC1c1ccccc1 (stereo not drawn) [Example 171, (5-phenyl-4,5-dihydro-1H-pyrazol-1-yl)(1-(pyrimidin-2-yl)piperidin-4-yl)methanone] | 1 to 100 nM |
| O=C(C1CCN(c2ccccn2)CC1)N1N=CC[C@H]1c1ccccc1 [Example 177, (S)-(5-phenyl-4,5-dihydro-1H-pyrazol-1-yl)(1-(pyridin-2-yl)piperidin-4-yl)methanone] | 1 to 100 nM |
| O=C(c1cscn1)N1CCC(C(=O)N2N=CCC2c2ccccc2)CC1 (stereo not drawn) [Example 154, (5-phenyl-4,5-dihydro-1H-pyrazol-1-yl)(1-(thiazole-4-carbonyl)piperidin-4-yl)methanone] | 1 to 100 nM |
| CC1=NN(C(=O)C(C)(C)C)C(c2ccccc2)C1 (stereo not drawn) [Example 81, 2,2-dimethyl-1-(3-methyl-5-phenyl-4,5-dihydro-1H-pyrazol-1-yl)-propan-1-one] | ~631 nM |
| CC1(C(=O)N2N=CCC2c2ccccc2)CCN(c2ncc(F)cn2)CC1 (stereo not drawn) [Example 190, (1-(5-fluoropyrimidin-2-yl)-4-methylpiperidin-4-yl)(5-phenyl-4,5-dihydro-1H-pyrazol-1-yl)methanone] | 1 to 100 nM |
| Cc1cccc(C(=O)N2N=CCC2c2ccccc2)c1 (stereo not drawn) [Example 23, (5-phenyl-4,5-dihydro-1H-pyrazol-1-yl)(m-tolyl) methanone] | ~501 nM |
| CC(C)(C)C(=O)N1N=CC[C@H]1c1cccnc1 [Example 42, (S)-2,2-dimethyl-1-(5-(pyridin-3-yl)-4,5-dihydro-1H-pyrazol-1-yl)-propan-1-one] | ~251 nM |
| O=C(C1CCCC1)N1N=CCC1c1ccccc1 (stereo not drawn) [Example 22, cyclopentyl(5-phenyl-4,5-dihydro-1H-pyrazol-1-yl)methanone] | 1 to 100 nM |
| Cc1ccc(C2CC=NN2C(=O)C2CCN(c3ncc(F)cn3)CC2)cn1 (stereo not drawn) [Example 187, (1-(5-fluoropyrimidin-2-yl)piperidin-4-yl)(5-(6-methylpyridin-3-yl)-4,5-dihydro-1H-pyrazol-1-yl)methanone] | 1 to 100 nM |
| O=C(C1CCN(c2ncc(F)cn2)CC1)N1N=CC[C@H]1c1cncc(F)c1 [Example 10, (S)-(5-(5-fluoropyridin-3-yl)-4,5-dihydro-1H-pyrazol-1-yl)(1-(5-fluoro-pyrimidin-2-yl)piperidin-4-yl)methanone] | 1 to 100 nM |
| O=C(c1noc2ccccc12)N1CCC(C(=O)N2N=CCC2c2ccccc2)CC1 (stereo not drawn) [Example 146, benzo[d]isoxazol-3-yl(4-(5-phenyl-4,5-dihydro-1H-pyrazole-1-carbonyl)piperidin-1-yl)methanone] | 1 to 100 nM |
| O=C(C1CCN(c2ncc(F)cn2)CC1)N1N=CCC1c1cncc(F)c1 (stereo not drawn) [Example 9] | 1 to 100 nM |
| O=C(c1ccc(F)cc1F)N1CCC(C(=O)N2N=CCC2c2ccccc2)CC1 (stereo not drawn) [Example 131, (1-(2,4-difluorobenzoyl)piperidin-4-yl)(5-phenyl-4,5-dihydro-1H-pyrazol-1-yl)-methanone] | 1 to 100 nM |
| O=C(C1CCN(c2ccccn2)CC1)N1N=CCC1c1ccccc1 (stereo not drawn) [Example 176, (5-phenyl-4,5-dihydro-1H-pyrazol-1-yl)(1-(pyridin-2-yl)piperidin-4-yl)methanonc 2,2,2-trifluoroacctate] | 1 to 100 nM |
| O=C(c1cnco1)N1CCC(C(=O)N2N=CCC2c2ccccc2)CC1 (stereo not drawn) [Example 147, oxazol-5-yl(4-(5-phenyl-4,5-dihydro-1H-pyrazole-1-carbonyl)piperidin-1-yl)methanone] | 1 to 100 nM |
| Cc1ccc(C2CC=NN2C(=O)C(C)(C)C)c(F)c1 (stereo not drawn) [Example 53, 1-(5-(2-fluoro-4-methylphenyl)-4,5-dihydro-1H-pyrazol-1-yl)-2,2-dimethyl-propan-1-one] | 1 to 100 nM |
| O=C(c1n[nH]c2ccccc12)N1CCC(C(=O)N2N=CCC2c2ccccc2)CC1 (stereo not drawn) [Example 140, (1-(1H-indazole-3-carbonyl)piperidin-4-yl)(5-phenyl-4,5-dihydro-1H-pyrazol-1-yl)methanone] | 1 to 100 nM |
